Assay results: patent publication US20230009608A1, “GRK2 INHIBITORS AND USES THEREOF” (Cygnal Therapeutics, Inc., priority 2020, published 2023)

What was measured:
[1] = target: T1, GRK2 (Homo sapiens, UniProt P25098); test: GRK2 Inhibition Assay (TR-FRET, Example 7); assay type: biochemical
T1 construct: purchased SignalChem A14-10G
T1 sequence (P25098 1-689): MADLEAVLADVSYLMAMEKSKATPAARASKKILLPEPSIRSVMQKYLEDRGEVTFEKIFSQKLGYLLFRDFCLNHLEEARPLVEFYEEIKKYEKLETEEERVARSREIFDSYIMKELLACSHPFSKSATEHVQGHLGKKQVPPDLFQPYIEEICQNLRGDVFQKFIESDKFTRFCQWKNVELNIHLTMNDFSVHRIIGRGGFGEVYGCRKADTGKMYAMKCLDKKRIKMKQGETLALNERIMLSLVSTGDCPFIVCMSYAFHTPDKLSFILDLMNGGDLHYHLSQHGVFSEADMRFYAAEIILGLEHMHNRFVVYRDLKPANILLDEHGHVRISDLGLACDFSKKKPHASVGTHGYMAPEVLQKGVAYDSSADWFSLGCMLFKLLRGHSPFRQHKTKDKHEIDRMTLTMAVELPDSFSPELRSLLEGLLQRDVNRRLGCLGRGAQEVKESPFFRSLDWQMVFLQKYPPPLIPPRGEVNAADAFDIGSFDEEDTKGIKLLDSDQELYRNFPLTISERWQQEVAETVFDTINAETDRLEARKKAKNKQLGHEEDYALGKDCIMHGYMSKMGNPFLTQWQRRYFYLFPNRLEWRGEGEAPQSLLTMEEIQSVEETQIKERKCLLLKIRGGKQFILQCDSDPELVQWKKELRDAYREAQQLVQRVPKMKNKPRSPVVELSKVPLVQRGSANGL
Experimental: Enzyme GRK2 (1 nM final concentration) was diluted in 25 mMv HEPES, 10 mM MgCl2, 2 mM DTT, 0.01% Tween-20, and 1 mM EGTA. Then the GRK2 mixture was added into ProxiPlate-384 white plate and pre-incubated for 30 min with test compounds at room temperature. ATP (7 μM final concentration) and Ulight TopoIIα (50 nM final concentration) were added into the assay plate to initiate the reaction and the mixture was incubated at room temperature for 90 min. Then, Eu anti-TopoIIα (0.12 nM final concentration), BSA (0.01% final concentration), and EDTA (11 mMv final concentration) in LANCE assay buffer were added into each well. After 60 min incubation time at room temperature, TR-FRET signal was measured by EnVision plate reader.

[2] = target: T1, GRK2; test: ADPGlo GRK2 Inhibition Assay (Example 8); assay type: biochemical; conditions: Enzyme Assay A, ADPGlo (Example 8); read-out: A: Enzymatic GRK2: IC50 (nM) (Example 8)
How it was run: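 GRK2 (15 nM 2× enzyme solution) was preincubated 15 min with compound, then reacted 180 min at room temperature with 2× mix of 20 μM ATP plus GRKtide in HEPES pH 7.5, MgCl2, Tween-20, DTT. ADP was detected by ADP-Glo luminescence. Percent inhibition was normalised to enzyme and no-enzyme controls, with dose-response curves from threefold dilutions starting at 100 μM.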

[3] = system: PAXF1657 control empty vector cell line; test: 7-day proliferation assay, PAXF1657 control empty vector cell line (Example 9); assay type: cell-based; conditions: 168 h; Cell Line: PAXF1657 empty vector (EV) cell line; 7-day; read-out: C: 7-day proliferation assay: IC50 GeoMean
How it was run: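 Read-out is CellTiter-Glo luminescence after 7 days of continuous exposure, with compound re-dosed in fresh medium at day 3. Cells were seeded at 500/well and treated across 30 μM-0.0002 μM (10 points, 0.3% DMSO); baseline viability plates were read at compound addition.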

[4] = Enzyme Assay B, TR-FRET (Example 7), read-out: B: Enzymatic GRK2: IC50 (nM) (Example 7)
[5] = TR-FRET GRK2 enzyme assay, read-out: B: Enzymatic GRK2: IC50 (nM) (Example 7)

SMILES | IC50 [2] [nM] | IC50 [3] [µM] | also measured
CNCCn1c(CNc2cccc(C(=O)NCc3c(F)cccc3F)c2)nnc1-c1ccncn1 | – | – | IC50 [1, 4]: 1400 nM
CN(C)CCCn1c(CNc2cccc(C(=O)NCc3c(F)cccc3F)c2)nnc1-c1ccncn1 | – | – | IC50 [1, 4]: 170 nM
CNCCCn1c(CNc2cccc(C(=O)NCc3c(F)cccc3F)c2)nnc1-c1ccncn1 | – | – | IC50 [1, 4]: 660 nM
O=C(NCc1c(F)cccc1F)c1cccc(NCc2nnc(-c3ccncn3)n2CCCO)c1 | – | – | IC50 [1, 4]: 47 nM
CNc1cc(-c2nnc(CNc3cccc(C(=O)NCc4c(F)cccc4F)c3)n2C)ncn1 | – | – | IC50 [1, 4]: 4400 nM
Cn1c(CNc2cccc(C(=O)NCc3cccc(F)c3F)c2)nnc1-c1ccncn1 | 16 | > 10 | –
COc1cccc(CNC(=O)c2cccc(NCc3nnc(-c4ccncn4)n3C)c2)c1F | 10 | > 10 | –
COc1ccccc1CNC(=O)c1cccc(NCc2nnc(-c3ccncn3)n2C)c1 | 20 | 1.9 | –
CC(NC(=O)c1cccc(NCc2nnc(-c3ccncn3)n2C)c1)c1nccn1C (stereo not drawn) | 24 | 0.591 | –
CCn1ncnc1CNC(=O)c1cccc(NCc2nnc(-c3ccncn3)n2C)c1 | 370 | > 10 | –
Cc1ncccc1CNC(=O)c1cccc(NCc2nnc(-c3ccncn3)n2C)c1 | 16 | 1.49 | –
O=C(NCCc1cccc(OS(=O)(=O)F)c1)c1cccc(NCc2nnc(-c3ccncc3)[nH]2)c1 | – | – | IC50 [1]: 210 nM
O=C(NC1(c2ccccc2)CCOCC1)c1cccc(NCc2nnc(-c3ccncc3)[nH]2)c1 | – | – | IC50 [1, 4]: 330 nM
O=C(NC1(c2ccccc2)CCOCC1)c1cccc(NCc2nnc(-c3ccncc3)n2CCO)c1 | – | – | IC50 [1, 4]: 130 nM
Cn1c(CNc2cccc(C(=O)N[C@H]3CCOc4ccccc43)c2)nnc1-c1ccncc1Cl | – | – | IC50 [1, 4]: 170 nM
CN(Cc1cccnc1C(F)(F)F)C(=O)c1cccc(NCc2nnc(-c3ccncn3)n2C)c1 | – | – | IC50 [1, 4]: > 10000 nM
Cn1c(CNc2cccc(C(=O)NCc3cnccn3)c2)nnc1-c1ccncn1 | 37 | > 30 | –
CC(NC(=O)c1cccc(NCc2nnc(-c3ccncn3)n2C)c1)c1cn[nH]c1 (stereo not drawn) | 13 | 16.8 | –
Cc1nc(C(C)NC(=O)c2cccc(NCc3nnc(-c4ccncn4)n3C)c2)no1 (stereo not drawn) | 67 | > 30 | –
Cc1cc(CNC(=O)c2cccc(NCc3nnc(-c4ccncn4)n3C)c2)nn1C | 41 | > 30 | –
Cn1c(CNc2cccc(C(=O)NCc3ccnnc3)c2)nnc1-c1ccncn1 | 43 | > 30 | –

SMILES | IC50 [2] [nM] | IC50 [3] [µM] | also measured
Cn1c(CNc2cccc(C(=O)NCc3cocn3)c2)nnc1-c1ccncn1 | 27 | > 30 | –
Cn1c(CNc2cccc(C(=O)NCc3cscn3)c2)nnc1-c1ccncn1 | 13 | > 30 | –
Cn1c(CNc2cccc(C(=O)NCc3ccon3)c2)nnc1-c1ccncn1 | 23 | > 30 | –
Cn1c(CNc2cccc(C(=O)NCc3nc(C4CC4)no3)c2)nnc1-c1ccncn1 | 27 | 5.75 | –
Cn1cc(-c2cc(CNC(=O)c3cccc(NCc4nnc(-c5ccncn5)n4C)c3)ccn2)cn1 | 17 | > 30 | –
Cn1cc(CNC(=O)c2cccc(NCc3nnc(-c4ccncn4)n3C)c2)cn1 | 36 | 9.77 | –
CCc1cnccc1CNC(=O)c1cccc(NCc2nnc(-c3ccncn3)n2CCO)c1 | – | – | IC50 [1, 4]: 0.82 nM
CCc1cnccc1CNC(=O)c1cccc(NCc2nnc(-c3ccncn3)n2CCCO)c1 | – | – | IC50 [1, 4]: 5.5 nM
CCc1cnccc1CNC(=O)c1ccnc(NCc2nnc(-c3ccncn3)n2C)c1 | – | – | IC50 [1, 4]: 15 nM
Cn1c(CNc2cc(C(=O)NCc3cccc4c3OCC4)ccn2)nnc1-c1ccncn1 | – | – | IC50 [1, 4]: 12 nM
O=C(NC1(c2ccccc2)CCOCC1)c1cccc(NCc2nnc(-c3ccncn3)n2CCO)c1 | – | – | IC50 [1, 4]: 6.3 nM
COc1ncccc1CNC(=O)c1cccc(NCc2nnc(-c3ccncn3)n2CCO)c1 | – | – | IC50 [1, 4]: 2.4 nM
CNCCCn1c(CNc2cccc(C(=O)NCc3cccnc3C(F)(F)F)c2)nnc1-c1ccncn1 | – | – | IC50 [1, 4]: 280 nM
COCCOc1ccc(CNC(=O)c2cccc(NCc3nnc(-c4ccncn4)n3C)c2)cc1 | 20.4 | > 14.2 | –
C#Cc1cc(CNC(=O)c2cccc(NCc3nnc(-c4ccncc4)[nH]3)c2)cc(OS(=O)(=O)F)c1 | 34.9 | 10.8 | –
C#Cc1ccc(OS(=O)(=O)F)cc1CNC(=O)c1cccc(NCc2nnc(-c3ccncc3)[nH]2)c1 | 28.4 | 7.44 | –
Cc1ccc2c(c1)OCC[C@H]2NC(=O)c1cccc(NCc2nnc(-c3ccncn3)n2C)c1 | 9.99 | 0.648 | –
Cc1ccc2c(c1)OCC[C@@H]2NC(=O)c1cccc(NCc2nnc(-c3ccncn3)n2C)c1 | > 1000 | 2.58 | –
Cn1c(CNc2cccc(C(=O)N[C@H]3COc4c(Cl)cccc43)c2)nnc1-c1ccncn1 | – | – | IC50 [1, 5]: 7.8 nM
Cn1c(CNc2cccc(C(=O)N[C@@H]3COc4c(Cl)cccc43)c2)nnc1-c1ccncn1 | – | – | IC50 [1, 5]: 28 nM
Cn1c(CNc2cccc(C(=O)N[C@H](C#N)c3c(F)cccc3Cl)c2)nnc1-c1ccncn1 | – | – | IC50 [1, 5]: 5.7 nM

SMILES | IC50 [2] [nM] | IC50 [3] [µM] | also measured
Cn1c(CNc2cccc(C(=O)N[C@@H](C#N)c3c(F)cccc3Cl)c2)nnc1-c1ccncn1 | – | – | IC50 [1, 5]: 5.1 nM
Cn1c(CNc2cccc(C(=O)N[C@@H](C#N)c3ccccc3Br)c2)nnc1-c1ccncn1 | – | – | IC50 [1, 5]: 4.1 nM
Cn1c(CNc2cccc(C(=O)N[C@H](C#N)c3ccccc3Br)c2)nnc1-c1ccncn1 | – | – | IC50 [1, 5]: 4.5 nM
Cn1c(CNc2cccc(C(=O)N[C@@H](C#N)c3ccccc3C(F)(F)F)c2)nnc1-c1ccncn1 | – | – | IC50 [1, 5]: 3.5 nM
COc1ccc([C@H](C#N)NC(=O)c2cccc(NCc3nnc(-c4ccncn4)n3C)c2)c(OC)c1 | – | – | IC50 [1, 5]: 68 nM
COc1ccc([C@@H](C#N)NC(=O)c2cccc(NCc3nnc(-c4ccncn4)n3C)c2)c(OC)c1 | – | – | IC50 [1, 5]: 7.8 nM
COc1ccccc1[C@H](NC(=O)c1cccc(NCc2nnc(-c3ccncn3)n2C)c1)c1nccn1C | – | – | IC50 [1, 5]: 100 nM
CCc1cnccc1CNC(=O)c1cccc(NCc2nnc(-c3ccncn3)n2[C@H]2CCC[C@@H](NC)C2)c1 | – | – | IC50 [1, 5]: 3900 nM
CCc1cnccc1CNC(=O)c1cccc(NCc2nnc(-c3ccncn3)n2[C@@H]2CCC[C@@H](NC)C2)c1 | – | – | IC50 [1, 5]: 1000 nM
CCc1cnccc1CNC(=O)c1cccc(NCc2nnc(-c3ccncn3)n2[C@H]2CC[C@@H](NC)C2)c1 | – | – | IC50 [1, 5]: 190 nM
CCc1cnccc1CNC(=O)c1cccc(NCc2nnc(-c3ccncn3)n2[C@H]2CC[C@H](NC)C2)c1 | – | – | IC50 [1, 5]: 920 nM
Cc1cccnc1CNC(=O)c1cccc(NCc2nnc(-c3ccncn3)n2C)c1 [drawing 264] | 14 | 1.61 | –
Cn1c(CNc2cccc(C(=O)NCc3ccncc3Cl)c2)nnc1-c1ccncn1 [drawing 276] | 9.1 | 4.06 | –
CN1CCC(NC(=O)c2cccc(NCc3nnc(-c4ccncn4)n3C)c2)c2ccccc21 (stereo not drawn) [drawing 321] | 37 | 9.34 | –
Cn1c(CNc2cccc(C(=O)NCc3ccnc(OCC(F)(F)F)c3)c2)nnc1-c1ccncn1 [drawing 339] | 17 | 3.76 | –
C[C@H](NC(=O)c1cccc(NCc2nnc(-c3ccncn3)n2C)c1)c1cccnc1 [drawing 345] | 420 | > 8.57 | –
Cn1c(CNc2cccc(C(=O)NCc3cccc4cccnc34)c2)nnc1-c1ccncn1 [drawing 359] | 61 | 3.64 | –
COc1cccc(C(C)NC(=O)c2cccc(NCc3nnc(-c4ccncn4)n3C)c2)c1 (stereo not drawn) [drawing 381] | 12 | 0.377 | –
CC1Cc2cc(CNC(=O)c3cccc(NCc4nnc(-c5ccncn5)n4C)c3)ccc2O1 (stereo not drawn) [drawing 401] | 22 | 3.37 | –
Cn1ccnc1C(NC(=O)c1cccc(NCc2nnc(-c3ccncc3)[nH]2)c1)C1CC1 (stereo not drawn) [drawing 485] | 10 | 5.51 | –
